Test results published in US20220347096A1, “LIPOSOMAL CANNABINOIDS AND USES THEREOF” (YISSUM RESEARCH DEVELOPMENT COMPANY OF THE HEBREW …, priority 2019, published 2022).

Assay: Plasma CBD profile and PK after IV administration
Assay type: in vivo
Settings: mice; for Plasma CBD, Mean ± SD: 12 mg/kg
Experimental: CBD was extracted from plasma samples that were spiked with cannabigerol (CBG, 1 mg/ml in methanol, Sigma, Cat. C-141-1) used as internal standard (IS) followed by dilution of the plasma five-fold in acetonitrile. After vigorous vortex it was centrifuged, and the upper phase was analyzed. Final IS concentration in the samples was 100 ng/ml.
Plasma extracts were analyzed by LCMS method. Specifically, LC-MS/MS analyses were conducted on a Sciex (Framingham, Mass., USA) Triple Quad™ 5500 mass spectrometer coupled with a Shimadzu (Kyoto, Japan) UHPLC System. The concentrations were calculated based on a calibration curve of CBD in plasma at a range of 1-1,000 ng/ml having 100 ng/ml of IS.
IV formulation: The formulation used for IV administration was 10 mg/g CBD formulation solubilized in Cremophor:Ethanol 50:50 solution. This formulation was diluted 10-fold with saline prior to injection to result in 1 mg/ml post dilution concentration. The diluted formulation was used within 1 h after preparation. […]
At the time-points detailed below, 3 mice were euthanized with CO2 and terminal blood was immediately collected from the retro-orbital sinus in labeled 0.5 ml K3EDTA blood collection tubes (Mini Collect, Greiner-bio-one, Austria). The blood was centrifuged at 2000×g for 10 minutes before plasma was extracted, collected in labeled tubes and frozen at −20° C. immediately after collection. The samples were then stored at −80° C. pending analysis. […]

[1] = female, BALB/C, mouse, in vivo, IV 12 mg/kg

Question: For `C=C(C)[C@@H]1CCC(C)=C[C@H]1c1c(O)cc(CCCCC)cc1O` [CBD, 2-[(1R,6R)-6-Isopropenyl-3-methylcyclohex-2-en-1-yl]-5-pentylbenzene-1,3-diol], which AUC(0-inf) [1] is on record?
Answer: 5020 ng·h/mL

Question: And the C0 [1]?
Answer: 9460 ng/mL

Question: And the Cmax [1]?
Answer: 8860 ng/mL

Question: And the Tmax [1]?
Answer: 4.98 min

Question: What about the clearance [1] of the same compound?
Answer: 39.8 mL/min/kg

Question: What about the half-life [1] of the same compound?
Answer: 101 min

Question: And the concentration at 5 min (female, BALB/C, mouse, in vivo, IV 12 mg/kg in Cremophor:Ethanol diluted with saline, 5 min, read-out: Plasma CBD, Mean ± SD)?
Answer: 8860 ng/mL

Question: What about the concentration at 1 h (female, BALB/C, mouse, in vivo, IV 12 mg/kg, 1 h, read-out: Plasma CBD, Mean ± SD) of the same compound?
Answer: 177 ± 40 ng/mL

Question: And the concentration at 4 h (female, BALB/C, mouse, in vivo, IV 12 mg/kg, 4 h, read-out: Plasma CBD, Mean ± SD)?
Answer: 35 ± 11 ng/mL

Question: What about the concentration at 8 h (female, BALB/C, mouse, in vivo, IV 12 mg/kg, 8 h, read-out: Plasma CBD, Mean ± SD) of the same compound?
Answer: 9.5 ng/mL

Question: What about the AUC (female, BALB/C, mouse, in vivo, IV 12 mg/kg, read-out: AUC0—Tlast) of the same compound?
Answer: 5000 ng·h/mL

Question: What about the Vd (female, BALB/C, mouse, in vivo, IV 12 mg/kg, read-out: Vz) of the same compound?
Answer: 5.79 L/kg

Question: And the “AUC0—Tlast/Dose” value (IV 12 mg/kg)?
Answer: 417 (hr*ng/mL)/(mg/kg)

Question: And the Cmax/Dose (IV 12 mg/kg)?
Answer: 738 (ng/mL)/(mg/kg)

Question: What about the “Plasma CBD, Mean ± SD” value (IV 12 mg/kg in Cremophor:Ethanol diluted with saline, 5 min) of the same compound?
Answer: 8,856 ± 1,451 ng/ml

Question: And the “Mean plasma CBD concentration normalized to dose (±SD)” value (IV 12 mg/kg, 5 min)?
Answer: 757 ± 124 ng/mL/mg/kg

Question: What about the “Mean plasma CBD concentration normalized to dose (±SD)” value (IV 12 mg/kg, 1 h) of the same compound?
Answer: 15 ± 3.46 ng/mL/mg/kg

Question: And the “Mean plasma CBD concentration normalized to dose (±SD)” value (IV 12 mg/kg, 4 h)?
Answer: 2.99 ± 0.90 ng/mL/mg/kg

Question: What about the “Mean plasma CBD concentration normalized to dose (±SD)” value (IV 12 mg/kg, 8 h) of the same compound?
Answer: 0.81 ± 0.31 ng/mL/mg/kg

Question: What about the “Plasma CBD, Mean ± SD” value (IV 12 mg/kg, 8 h) of the same compound?
Answer: 9.50 ± 3.67 ng/mL

Question: And the “Mean plasma CBD concentration normalized to dose (±SD)” value (IV 12 mg/kg, 24 h)?
Answer: BLOD

Question: And the “Plasma CBD, Mean ± SD” value (IV 12 mg/kg, 24 h)?
Answer: below the limit of detection and BLOD

Question: What about the “Mean plasma CBD concentration normalized to dose (±SD)” value (IV 12 mg/kg, 48 h) of the same compound?
Answer: BLOD

Question: And the “Plasma CBD, Mean ± SD” value (IV 12 mg/kg, 48 h)?
Answer: below the limit of detection and BLOD
